One may read the Ki as the equilibrium dissociation constant of an inhibitor or competing ligand from its target.

The results in this text go back to patent publication US12509457B2, “Bicyclic nitrogen containing heterocycles as inhibitors of salt-induced kinase SIK2” (priority 2019, dated 2025).

Common to all, as to format: biochemical
One experiment has as its target SIK2 (Homo sapiens, UniProt Q9H0K1). The experiment can be described thus: SIK2 kinase assay, IMAP fluorescence polarization. On the technique in general: Polarisation of emitted light reports the rotation of a fluorescent probe.
The next experiment addresses Src (Homo sapiens, UniProt P12931). The experiment can be described thus: Src kinase assay, IMAP fluorescence polarization.
For a further experiment, the target named is Abl (Homo sapiens, UniProt P00519). The experiment can be described thus: Abl kinase assay, IMAP fluorescence polarization.
The next experiment concerns the target SIK3 (Homo sapiens, UniProt Q9Y2K2). Briefly: SIK3 kinase assay, IMAP fluorescence polarization.
Another experiment deals with SIK1 (Homo sapiens, UniProt P57059). Briefly: SIK1 kinase assay, IMAP fluorescence polarization.

Where only a bound is given, the exact number is not on record here.

Abl, sequence (P00519 whole entry): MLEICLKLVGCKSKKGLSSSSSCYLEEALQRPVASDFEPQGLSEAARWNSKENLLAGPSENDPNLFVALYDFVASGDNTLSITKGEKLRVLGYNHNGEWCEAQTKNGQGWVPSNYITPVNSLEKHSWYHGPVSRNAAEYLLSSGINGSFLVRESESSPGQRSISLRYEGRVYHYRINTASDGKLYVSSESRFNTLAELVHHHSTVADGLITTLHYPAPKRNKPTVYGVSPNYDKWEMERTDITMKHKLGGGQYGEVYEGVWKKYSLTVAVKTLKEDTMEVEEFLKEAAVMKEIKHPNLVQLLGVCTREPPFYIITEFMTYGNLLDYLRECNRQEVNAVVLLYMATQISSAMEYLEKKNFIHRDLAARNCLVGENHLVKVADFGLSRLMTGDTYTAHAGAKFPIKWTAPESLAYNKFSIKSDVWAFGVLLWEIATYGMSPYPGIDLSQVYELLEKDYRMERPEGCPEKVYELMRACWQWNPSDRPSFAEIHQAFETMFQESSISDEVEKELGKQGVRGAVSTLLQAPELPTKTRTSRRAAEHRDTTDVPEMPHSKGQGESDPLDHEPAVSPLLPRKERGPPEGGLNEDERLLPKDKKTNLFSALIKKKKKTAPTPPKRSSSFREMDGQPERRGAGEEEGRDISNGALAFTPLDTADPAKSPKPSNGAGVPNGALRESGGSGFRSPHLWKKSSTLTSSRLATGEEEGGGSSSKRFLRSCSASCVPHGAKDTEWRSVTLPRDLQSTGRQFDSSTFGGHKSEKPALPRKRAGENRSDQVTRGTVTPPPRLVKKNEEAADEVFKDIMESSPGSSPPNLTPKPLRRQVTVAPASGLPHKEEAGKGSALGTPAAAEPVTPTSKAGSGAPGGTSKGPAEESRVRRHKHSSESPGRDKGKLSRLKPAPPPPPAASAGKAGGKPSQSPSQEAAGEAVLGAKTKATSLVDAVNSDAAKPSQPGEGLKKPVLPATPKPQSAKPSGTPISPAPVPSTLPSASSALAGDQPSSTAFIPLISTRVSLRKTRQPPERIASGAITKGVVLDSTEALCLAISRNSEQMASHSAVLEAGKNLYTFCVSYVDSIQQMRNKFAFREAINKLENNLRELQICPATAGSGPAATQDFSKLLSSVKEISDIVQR
SIK2, sequence (Q9H0K1 whole entry): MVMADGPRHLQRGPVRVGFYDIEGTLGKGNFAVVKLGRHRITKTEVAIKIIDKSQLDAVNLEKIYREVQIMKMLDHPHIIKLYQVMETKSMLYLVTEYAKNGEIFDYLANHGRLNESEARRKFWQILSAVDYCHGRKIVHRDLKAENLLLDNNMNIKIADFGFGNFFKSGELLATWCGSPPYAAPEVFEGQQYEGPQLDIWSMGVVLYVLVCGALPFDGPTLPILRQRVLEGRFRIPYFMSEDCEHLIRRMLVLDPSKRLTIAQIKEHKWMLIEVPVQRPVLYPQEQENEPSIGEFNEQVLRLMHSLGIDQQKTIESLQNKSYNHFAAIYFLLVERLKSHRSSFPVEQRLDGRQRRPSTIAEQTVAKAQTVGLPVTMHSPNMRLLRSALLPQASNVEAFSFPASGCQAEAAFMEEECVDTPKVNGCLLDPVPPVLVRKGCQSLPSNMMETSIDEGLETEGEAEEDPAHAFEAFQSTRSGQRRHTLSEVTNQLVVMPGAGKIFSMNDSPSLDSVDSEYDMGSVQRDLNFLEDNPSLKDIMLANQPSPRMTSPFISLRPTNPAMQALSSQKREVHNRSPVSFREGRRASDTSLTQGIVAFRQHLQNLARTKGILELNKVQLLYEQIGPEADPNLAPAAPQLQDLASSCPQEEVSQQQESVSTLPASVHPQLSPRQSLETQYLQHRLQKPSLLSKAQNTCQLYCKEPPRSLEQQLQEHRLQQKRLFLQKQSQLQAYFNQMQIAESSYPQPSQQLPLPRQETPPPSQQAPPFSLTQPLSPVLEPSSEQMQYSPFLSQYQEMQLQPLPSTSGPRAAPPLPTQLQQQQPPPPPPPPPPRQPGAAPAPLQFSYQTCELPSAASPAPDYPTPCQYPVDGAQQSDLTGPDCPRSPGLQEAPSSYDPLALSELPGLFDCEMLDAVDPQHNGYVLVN
SIK1, sequence (P57059 whole entry): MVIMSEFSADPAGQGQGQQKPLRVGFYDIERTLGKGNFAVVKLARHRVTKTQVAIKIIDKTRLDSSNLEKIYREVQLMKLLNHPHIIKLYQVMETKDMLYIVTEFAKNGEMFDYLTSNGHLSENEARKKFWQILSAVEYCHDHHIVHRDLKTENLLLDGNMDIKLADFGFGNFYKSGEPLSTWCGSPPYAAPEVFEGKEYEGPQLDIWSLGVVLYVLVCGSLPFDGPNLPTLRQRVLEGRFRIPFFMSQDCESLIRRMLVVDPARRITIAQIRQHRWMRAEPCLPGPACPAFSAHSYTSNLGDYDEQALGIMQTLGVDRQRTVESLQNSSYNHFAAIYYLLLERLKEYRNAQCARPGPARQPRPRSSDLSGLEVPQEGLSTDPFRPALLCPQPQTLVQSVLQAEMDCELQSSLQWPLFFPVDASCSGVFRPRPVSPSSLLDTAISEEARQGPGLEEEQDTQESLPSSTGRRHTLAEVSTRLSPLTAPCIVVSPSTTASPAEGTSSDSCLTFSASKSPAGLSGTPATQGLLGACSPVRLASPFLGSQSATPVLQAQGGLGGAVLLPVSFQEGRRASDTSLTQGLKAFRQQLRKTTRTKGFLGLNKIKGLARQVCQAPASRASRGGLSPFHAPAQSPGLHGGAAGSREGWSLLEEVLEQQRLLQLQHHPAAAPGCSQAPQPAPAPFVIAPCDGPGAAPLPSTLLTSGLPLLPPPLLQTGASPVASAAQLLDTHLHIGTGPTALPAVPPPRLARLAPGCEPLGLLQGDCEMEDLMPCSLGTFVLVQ
Src, sequence (P12931 whole entry): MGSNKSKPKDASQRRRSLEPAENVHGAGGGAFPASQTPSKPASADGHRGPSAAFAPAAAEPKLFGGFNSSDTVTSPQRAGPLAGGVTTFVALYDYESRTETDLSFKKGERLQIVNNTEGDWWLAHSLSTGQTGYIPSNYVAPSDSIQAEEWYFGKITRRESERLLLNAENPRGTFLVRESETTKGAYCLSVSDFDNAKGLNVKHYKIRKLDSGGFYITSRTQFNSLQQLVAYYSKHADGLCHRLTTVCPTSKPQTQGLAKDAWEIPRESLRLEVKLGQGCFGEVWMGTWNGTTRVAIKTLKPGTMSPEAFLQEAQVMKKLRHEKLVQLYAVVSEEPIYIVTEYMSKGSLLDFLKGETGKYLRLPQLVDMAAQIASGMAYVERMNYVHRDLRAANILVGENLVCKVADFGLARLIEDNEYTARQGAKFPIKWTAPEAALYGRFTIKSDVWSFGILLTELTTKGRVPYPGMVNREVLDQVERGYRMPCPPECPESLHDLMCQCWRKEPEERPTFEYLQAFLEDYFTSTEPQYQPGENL
SIK3, sequence (Q9Y2K2 whole entry): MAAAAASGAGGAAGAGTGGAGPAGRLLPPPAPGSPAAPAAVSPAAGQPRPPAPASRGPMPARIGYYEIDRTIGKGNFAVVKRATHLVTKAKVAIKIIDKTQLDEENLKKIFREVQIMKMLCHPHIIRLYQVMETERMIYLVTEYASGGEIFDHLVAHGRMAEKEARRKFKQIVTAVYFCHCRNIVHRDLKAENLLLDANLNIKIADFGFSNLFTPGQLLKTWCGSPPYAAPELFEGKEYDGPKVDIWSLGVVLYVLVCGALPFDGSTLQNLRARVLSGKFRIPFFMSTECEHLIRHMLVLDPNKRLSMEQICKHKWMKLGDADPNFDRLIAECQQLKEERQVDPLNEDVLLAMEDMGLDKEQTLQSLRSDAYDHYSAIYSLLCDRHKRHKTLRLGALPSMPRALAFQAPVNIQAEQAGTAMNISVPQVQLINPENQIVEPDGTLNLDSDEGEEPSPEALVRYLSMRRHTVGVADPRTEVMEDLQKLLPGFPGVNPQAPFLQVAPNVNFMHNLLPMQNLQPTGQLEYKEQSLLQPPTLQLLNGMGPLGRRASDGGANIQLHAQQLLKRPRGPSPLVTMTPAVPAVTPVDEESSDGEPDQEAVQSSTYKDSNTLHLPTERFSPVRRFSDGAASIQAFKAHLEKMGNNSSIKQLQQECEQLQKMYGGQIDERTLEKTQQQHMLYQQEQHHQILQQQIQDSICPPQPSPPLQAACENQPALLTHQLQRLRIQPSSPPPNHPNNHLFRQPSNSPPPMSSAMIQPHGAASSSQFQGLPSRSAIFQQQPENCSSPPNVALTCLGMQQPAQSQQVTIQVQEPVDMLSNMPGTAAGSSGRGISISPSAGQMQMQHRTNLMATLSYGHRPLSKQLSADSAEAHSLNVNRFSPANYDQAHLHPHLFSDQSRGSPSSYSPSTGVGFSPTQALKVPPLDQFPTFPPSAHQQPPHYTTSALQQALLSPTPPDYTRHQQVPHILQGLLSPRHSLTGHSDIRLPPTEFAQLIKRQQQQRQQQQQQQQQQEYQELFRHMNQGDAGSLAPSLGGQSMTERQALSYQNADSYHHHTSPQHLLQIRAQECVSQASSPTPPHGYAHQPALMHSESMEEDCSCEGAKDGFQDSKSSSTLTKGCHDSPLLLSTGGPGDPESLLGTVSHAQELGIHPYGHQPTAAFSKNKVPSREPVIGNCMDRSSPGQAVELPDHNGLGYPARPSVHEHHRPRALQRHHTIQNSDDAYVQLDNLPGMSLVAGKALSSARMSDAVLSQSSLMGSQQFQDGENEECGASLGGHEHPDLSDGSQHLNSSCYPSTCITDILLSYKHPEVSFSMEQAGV

For the molecule `CCN1CCC(N2C(=O)N(c3c(C)cccc3F)Cc3cnc(N)nc32)CC1` [Example 20, 7-amino-1-(1-ethyl-4-piperidyl)-3-(2-fluoro-6-methyl-phenyl)-4H-pyrimido[4,5-d]pyrimidin-2-one], the inhibitory constant (Ki) is 0.803 nM on SIK2; over 1000 nM on Src; over 1000 nM on Abl; 7.18 nM on SIK3; 6.61 nM at SIK1.
`Cc1cccc(Cl)c1N1Cc2cnc(N)nc2N(C2CCN(C)CC2)C1=O` [Example 22, 7-amino-3-(2-chloro-6-methyl-phenyl)-1-(1-methyl-4-piperidyl)-4H-pyrimido[4,5-d]pyrimidin-2-one]: the Ki at SIK2 was 3.07 nM; on Src, 265 nM; at Abl it was over 1000 nM; at SIK3, 27.8 nM; on SIK1 it was 10.6 nM.
The matching figures for `Cc1cccc(F)c1N1Cc2cnccc2N(C2CCN(C)CC2)C1=O` [Example 24, 3-(2-fluoro-6-methyl-phenyl)-1-(1-methyl-4-piperidyl)-4H-pyrido[4,3-d]pyrimidin-2-one]: 8.97 nM, 2250 nM, over 10000 nM, 24 nM and 20.6 nM.
The matching figures for `CCN1CCC(N2C(=O)N(c3c(C)cccc3F)Cc3cnccc32)CC1` [Example 25, 1-(1-ethyl-4-piperidyl)-3-(2-fluoro-6-methyl-phenyl)-4H-pyrido[4,3-d]pyrimidin-2-one]: 17 nM, 2640 nM, over 10000 nM, 36.3 nM and 33.2 nM.
The matching figures for `Cc1cccc(F)c1N1Cc2cncnc2N(C2CCN(C)CC2)C1=O` [Example 26, 3-(2-fluoro-6-methyl-phenyl)-1-(1-methyl-4-piperidyl)-4H-pyrimido[4,5-d]pyrimidin-2-one]: 192 nM, over 100000 nM, over 100000 nM, 895 nM and 586 nM.
With `CCN1CCC(N2C(=O)N(c3c(C)cccc3F)Cc3cncnc32)CC1` [Example 27, 1-(1-ethyl-4-piperidyl)-3-(2-fluoro-6-methyl-phenyl)-4H-pyrimido[4,5-d]pyrimidin-2-one], the inhibition constant Ki at SIK2 was 210 nM; at Src, over 100000 nM; at Abl it was 4190 nM; on SIK3 it was 956 nM; on SIK1, 635 nM.
On the same counts, the results for `Cc1cccc(Cl)c1N1Cc2cncnc2N(C2CCN(C)CC2)C1=O` [Example 28, 3-(2-chloro-6-methyl-phenyl)-1-(1-methyl-4-piperidyl)-4H-pyrimido[4,5-d]pyrimidin-2-one] are 213 nM, over 100000 nM, 6220 nM, 2220 nM and 397 nM.
In the case of `CCN1CCC(N2C(=O)N(c3c(C)cccc3Cl)Cc3cncnc32)CC1` [Example 29, 3-(2-chloro-6-methyl-phenyl)-1-(1-ethyl-4-piperidyl)-4H-pyrimido[4,5-d]pyrimidin-2-one], the Ki on SIK2 is 128 nM; at Src it was over 100000 nM; on Abl, 6490 nM; on SIK3, 1700 nM; at SIK1, 207 nM.
The matching figures for `Cc1cccc(Cl)c1N1Cc2cnccc2N(C2CCN(C)CC2)C1=O` [Example 32, 3-(2-chloro-6-methyl-phenyl)-1-(1-methyl-4-piperidyl)-4H-pyrido[4,3-d]pyrimidin-2-one]: 19.6 nM, 514 nM, over 10000 nM, 144 nM and 14.7 nM.
On the same counts, the results for `CCN1CCC(N2C(=O)N(c3c(C)cccc3Cl)Cc3cnccc32)CC1` [Example 33, 3-(2-chloro-6-methyl-phenyl)-1-(1-ethyl-4-piperidyl)-4H-pyrido[4,3-d]pyrimidin-2-one] are 20.3 nM, 1540 nM, 4950 nM, 213 nM and 34.1 nM.
